Experimental data published in ChEMBL document CHEMBL1201862, “PubChem BioAssay data set” (2004).
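Method: 48-hour compound exposure of cells in 96-well plates, five concentrations, linear interpolation of endpoints. GI50 = concentration required for 50% inhibition of growth.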 Calls of active or inactive are those of the source. No stated cut-off is given here; in the data, active = GI50 up to about 1.1 µM and inactive = higher.

Columns and labels:
Assay in all cases: DTP human tumour cell line panel, 48 h
KM12 = tested on: KM12
NCI/ADR-RES = tested on: NCI/ADR-RES
SF-539 = tested on: SF-539
NCI-H226 = tested on: NCI-H226
UACC-62 = tested on: UACC-62
SNB-75 = tested on: SNB-75
ACHN = tested on: ACHN
SN12C = tested on: SN12C
MDA-MB-435 = tested on: MDA-MB-435
LOX IMVI = tested on: LOX IMVI
MOLT-4 = tested on: MOLT-4
HT-29 = tested on: HT-29
SF-268 = tested on: SF-268
MDA-N = tested on: MDA-N
CCRF-CEM = tested on: CCRF-CEM
SK-MEL-5 = tested on: SK-MEL-5
HOP-62 = tested on: HOP-62
786-0 = tested on: 786-0
COLO 205 = tested on: COLO 205
A498 = tested on: A498
HL-60 = tested on: HL-60
SW-620 = tested on: SW-620
DU-145 = tested on: DU-145
OVCAR-4 = tested on: OVCAR-4
K562 = tested on: K562
SK-OV-3 = tested on: SK-OV-3
HCC 2998 = tested on: HCC 2998
Hs-578T = tested on: Hs-578T
OVCAR-8 = tested on: OVCAR-8
RXF 393 = tested on: RXF 393
SF-295 = tested on: SF-295
SK-MEL-28 = tested on: SK-MEL-28
UO-31 = tested on: UO-31
MCF7 = tested on: MCF7
TK-10 = tested on: TK-10
PC-3 = tested on: PC-3
OVCAR-5 = tested on: OVCAR-5
SK-MEL-2 = tested on: SK-MEL-2
HCT-15 = tested on: HCT-15
HOP-92 = tested on: HOP-92
A549 = tested on: A549
NCI-H460 = tested on: NCI-H460
U-251 = tested on: U-251
NCI-H522 = tested on: NCI-H522
IGROV-1 = tested on: IGROV-1
RPMI-8226 = tested on: RPMI-8226
SR = tested on: SR
OVCAR-3 = tested on: OVCAR-3
T47D = tested on: T47D
HCT-116 = tested on: HCT-116
Malme-3M = tested on: Malme-3M
NCI-H23 = tested on: NCI-H23
EKVX = tested on: EKVX
UACC-257 = tested on: UACC-257
SNB-19 = tested on: SNB-19
M14 = tested on: M14
MDA-MB-231 = tested on: MDA-MB-231
BT-549 = tested on: BT-549

## CON(C)C(=O)CNC(=O)OCC1c2ccccc2-c2ccccc21
KM12
  GI50: > 100 µM (inactive)
NCI/ADR-RES
  GI50: > 100 µM (inactive)
SF-539
  GI50: > 100 µM (inactive)
NCI-H226
  GI50: > 100 µM (inactive)
UACC-62
  GI50: > 100 µM (inactive)
SNB-75
  GI50: > 100 µM (inactive)
ACHN
  GI50: > 100 µM (inactive)
SN12C
  GI50: > 100 µM (inactive)
MDA-MB-435
  GI50: > 100 µM (inactive)
LOX IMVI
  GI50: 18.8 µM (inactive)
MOLT-4
  GI50: 37.9 µM (inactive)
HT-29
  GI50: > 100 µM (inactive)
SF-268
  GI50: > 100 µM (inactive)
MDA-N
  GI50: > 100 µM (inactive)
CCRF-CEM
  GI50: 44.1 µM (inactive)
SK-MEL-5
  GI50: 84.5 µM (inactive)
HOP-62
  GI50: > 100 µM (inactive)
786-0
  GI50: > 100 µM (inactive)
COLO 205
  GI50: > 100 µM (inactive)
A498
  GI50: 57.5 µM (inactive)
HL-60
  GI50: 25.5 µM (inactive)
SW-620
  GI50: > 100 µM (inactive)
DU-145
  GI50: > 100 µM (inactive)
OVCAR-4
  GI50: > 100 µM (inactive)
K562
  GI50: 40.7 µM (inactive)
SK-OV-3
  GI50: > 100 µM (inactive)
HCC 2998
  GI50: > 100 µM (inactive)
Hs-578T
  GI50: > 100 µM (inactive)
OVCAR-8
  GI50: > 100 µM (inactive)
RXF 393
  GI50: > 100 µM (inactive)
SF-295
  GI50: > 100 µM (inactive)
SK-MEL-28
  GI50: > 100 µM (inactive)
UO-31
  GI50: 63.2 µM (inactive)
MCF7
  GI50: > 100 µM (inactive)
TK-10
  GI50: > 100 µM (inactive)
PC-3
  GI50: 85.1 µM (inactive)
OVCAR-5
  GI50: > 100 µM (inactive)
SK-MEL-2
  GI50: > 100 µM (inactive)
HCT-15
  GI50: 78 µM
HOP-92
  GI50: 93.1 µM (inactive)
A549
  GI50: > 100 µM (inactive)
NCI-H460
  GI50: > 100 µM (inactive)
U-251
  GI50: 98.4 µM (inactive)
NCI-H522
  GI50: > 100 µM (inactive)
IGROV-1
  GI50: > 100 µM (inactive)
RPMI-8226
  GI50: 36.2 µM (inactive)
SR
  GI50: 30.6 µM (inactive)
OVCAR-3
  GI50: > 100 µM (inactive)
T47D
  GI50: 68.4 µM (inactive)
HCT-116
  GI50: 18.6 µM (inactive)
Malme-3M
  GI50: > 100 µM (inactive)
NCI-H23
  GI50: > 100 µM (inactive)
EKVX
  GI50: > 100 µM (inactive)
UACC-257
  GI50: > 100 µM (inactive)
SNB-19
  GI50: > 100 µM (inactive)
M14
  GI50: > 100 µM (inactive)
MDA-MB-231
  GI50: > 100 µM (inactive)
BT-549
  GI50: > 100 µM (inactive)
